Data from PubChem BioAssay (NCI).
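Cultured in 96-well plates, cells were exposed to test compound for 48 hours across five concentrations. GI50: concentration for 50% inhibition of growth. TGI is the concentration that stops growth completely.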

Legend:
Test in all cases: NCI anticancer screen, dose series, 48 h
[1] = system: MOLT-4 leukemia
[2] = system: ACHN renal
[3] = system: HCT-116 colon
[4] = system: UO-31 renal
[5] = system: IGROV1 ovarian
[6] = system: MDA-MB-435
[7] = system: CCRF-CEM leukemia
[8] = system: NCI-H460 lung
[9] = system: HCC-2998 colon
[10] = system: SW-620 colon

SMILES: CC(=O)O/N=C1/C(c2c(O)[nH]c3cc(Br)ccc23)=Nc2ccccc21
- GI50 [1]: 1780 nM
- TGI [1]: 5070 nM
- GI50 [2]: 707 nM
- TGI [2]: 2180 nM
- GI50 [3]: 1050 nM
- TGI [3]: 2670 nM
- GI50 [4]: 653 nM
- TGI [4]: 2400 nM
- GI50 [5]: 1270 nM
- TGI [5]: 3330 nM
- GI50 [6]: 1630 nM
- TGI [6]: 3200 nM
- GI50 [7]: 1380 nM
- TGI [7]: 5370 nM
- GI50 [8]: 1240 nM
- TGI [8]: 3330 nM
- GI50 [9]: 1680 nM
- TGI [9]: 3080 nM
- GI50 [10]: 1820 nM
- TGI [10]: 3460 nM

SMILES: O=C(CCl)N1c2ccccc2Sc2ccc3ccccc3c21
- GI50 [1]: 478 nM
- GI50 [2]: 801 nM
- TGI [2]: 2010 nM
- GI50 [3]: 652 nM
- TGI [3]: 2060 nM
- GI50 [4]: 281 nM
- TGI [4]: 1070 nM
- GI50 [5]: 567 nM
- TGI [5]: 1500 nM
- GI50 [6]: 1460 nM
- TGI [6]: 3010 nM
- GI50 [7]: 220 nM
- TGI [7]: 533 nM
- GI50 [8]: 1890 nM
- TGI [8]: 3820 nM
- GI50 [9]: 1800 nM
- TGI [9]: 3250 nM
- GI50 [10]: 1270 nM
- TGI [10]: 2890 nM

SMILES: C/C(=N\N=C(/[Se])N1CC2CCC(CC2)C1)c1ccccn1
- TGI [1]: 1160 nM
- TGI [2]: 1780 nM
- TGI [3]: 878 nM
- TGI [4]: 1900 nM
- TGI [5]: 2480 nM
- TGI [6]: 619 nM
- TGI [7]: 808 nM
- TGI [8]: 2610 nM
- TGI [9]: 1500 nM
- TGI [10]: 608 nM

SMILES: COC(=O)[C@]12CC[C@@H](C)[C@H](C)[C@@H]1C1=CC[C@@H]3[C@@]4(C)C=C(O)C(=O)[C@@]5(C)COC(=C54)C[C@@]3(C)[C@]1(C)CC2
- GI50 [1]: 2210 nM
- TGI [1]: 6520 nM
- GI50 [2]: 11700 nM
- TGI [2]: 28700 nM
- GI50 [3]: 9490 nM
- TGI [3]: 22900 nM
- GI50 [4]: 10100 nM
- TGI [4]: 24400 nM
- GI50 [5]: 8420 nM
- TGI [5]: 29600 nM
- GI50 [6]: 6120 nM
- TGI [6]: 21500 nM
- GI50 [7]: 3380 nM
- TGI [7]: 14900 nM
- GI50 [8]: 12400 nM
- TGI [8]: 28900 nM
- GI50 [9]: 11500 nM
- TGI [9]: 26700 nM
- GI50 [10]: 11300 nM
- TGI [10]: 26300 nM

SMILES: O=C(Nc1ccc(Cl)cc1)c1cc(-c2ccc(Cl)cc2)c2sc(=O)[nH]c2n1
- GI50 [1]: 2520 nM
- TGI [1]: 11800 nM
- GI50 [2]: 2270 nM
- TGI [2]: 8890 nM
- GI50 [3]: 2400 nM
- TGI [3]: 10800 nM
- GI50 [4]: 1590 nM
- TGI [4]: 5360 nM
- GI50 [5]: 2830 nM
- TGI [5]: 28900 nM
- GI50 [6]: 2700 nM
- TGI [6]: 11200 nM
- GI50 [7]: 2500 nM
- TGI [7]: 40300 nM
- GI50 [8]: 2190 nM
- TGI [8]: 12600 nM
- GI50 [9]: 2170 nM
- TGI [9]: 14500 nM
- GI50 [10]: 2900 nM
- TGI [10]: 15200 nM

SMILES: COC(=O)C1(F)C(=O)NC(=O)NC1O (stereo unspecified)
- TGI [1]: > 100000 nM
- TGI [2]: > 100000 nM
- TGI [3]: > 100000 nM
- TGI [4]: > 100000 nM
- TGI [5]: > 100000 nM
- TGI [6]: > 100000 nM
- TGI [7]: > 100000 nM
- TGI [8]: > 100000 nM
- TGI [9]: > 100000 nM
- TGI [10]: > 100000 nM

SMILES: O=C(O)c1cc(N=Cc2ccccc2O)cc(C(=O)O)c1
- TGI [1]: > 100000 nM
- TGI [2]: > 100000 nM
- TGI [3]: > 100000 nM
- TGI [4]: > 100000 nM
- TGI [5]: > 100000 nM
- TGI [6]: > 100000 nM
- TGI [7]: > 100000 nM
- TGI [8]: > 100000 nM
- TGI [9]: > 100000 nM
- TGI [10]: > 100000 nM

SMILES: COc1cc(-c2nc3sc4c(c3c(=O)[nH]2)CCCCCC4)cc(OC)c1OC
- GI50 [1]: 1860 nM
- TGI [1]: > 33200 nM
- GI50 [2]: 1790 nM
- TGI [2]: > 33200 nM
- GI50 [3]: 1210 nM
- TGI [3]: 5720 nM
- GI50 [4]: 2070 nM
- TGI [4]: > 33200 nM
- GI50 [5]: 4580 nM
- TGI [5]: > 33200 nM
- GI50 [6]: 115 nM
- TGI [6]: 611 nM
- GI50 [7]: 1280 nM
- TGI [7]: > 33200 nM
- GI50 [8]: 1200 nM
- TGI [8]: > 33200 nM
- GI50 [9]: 2410 nM
- TGI [9]: > 33200 nM
- GI50 [10]: 1500 nM
- TGI [10]: > 33200 nM

SMILES: COc1cccc2c1C(=O)c1c(O)c3c(c(O)c1C2=O)C[C@@](O)(C(=O)CO)C[C@@H]3OC1C[C@H](N)[C@H](O)[C@H](C)O1 (stereo partly specified)
- TGI [1]: 105 nM
- GI50 [2]: 25.7 nM
- TGI [2]: 242 nM
- GI50 [3]: 36 nM
- TGI [3]: 212 nM
- GI50 [4]: 152 nM
- TGI [4]: 1140 nM
- GI50 [5]: 90.1 nM
- TGI [5]: 8580 nM
- GI50 [6]: 109 nM
- TGI [6]: 574 nM
- GI50 [7]: 18.6 nM
- TGI [7]: 428 nM
- GI50 [8]: 5 nM
- TGI [8]: > 50000 nM
- GI50 [9]: 67.8 nM
- TGI [9]: 340 nM
- GI50 [10]: 31.2 nM
- TGI [10]: 2970 nM

SMILES: O=C(Cc1cccc(OC(F)(F)F)c1)Nc1ccc(CCCCc2nnc(NC(=O)Cc3ccccn3)s2)nn1
- GI50 [1]: 5490 nM
- TGI [1]: > 100000 nM
- GI50 [2]: 20900 nM
- TGI [2]: > 100000 nM
- GI50 [3]: 16200 nM
- TGI [3]: > 100000 nM
- GI50 [4]: 2850 nM
- TGI [4]: 28900 nM
- GI50 [5]: 17300 nM
- TGI [5]: > 100000 nM
- GI50 [6]: 30400 nM
- TGI [6]: > 100000 nM
- GI50 [7]: 32100 nM
- TGI [7]: > 100000 nM
- GI50 [8]: 13900 nM
- TGI [8]: 48300 nM
- GI50 [9]: 52400 nM
- TGI [9]: > 100000 nM
- GI50 [10]: 40400 nM
- TGI [10]: > 100000 nM

SMILES: COc1cc2c[n+](C)c3c4ccccc4ccc3c2cc1OC (tested in a mixture with another compound)
- GI50 [1]: 514 nM
- TGI [1]: 50500 nM
- TGI [2]: > 100000 nM
- GI50 [3]: 2550 nM
- TGI [3]: 27200 nM
- TGI [4]: > 100000 nM
- GI50 [5]: 2750 nM
- TGI [5]: 44100 nM
- GI50 [6]: 8920 nM
- TGI [6]: 21500 nM
- GI50 [7]: 2080 nM
- TGI [7]: > 70600 nM
- GI50 [8]: 2960 nM
- TGI [8]: 31700 nM
- GI50 [9]: 6360 nM
- TGI [9]: 21300 nM
- GI50 [10]: 2710 nM
- TGI [10]: 48000 nM
